Experimental data taken from patent US8871778B2, “Substituted pyrimidine compounds and their use as SYK inhibitors” (Genosco, priority 2012, dated 2014).
Values belong to the compound of their own block, whether it stands above or below them.

Assays:
full-length human SYK = full-length human SYK (Homo sapiens (Human), UniProt P43405); test: Inhibition of enzymatic SYK kinase activity (LANCE Ulight-TK peptide, Eu-antibody, 665 nm emission); assay type: biochemical; conditions: ATP at Km (15 uM)
THP-1 cells [1] = test: SYK-dependent TNF-α release assay (IgG stimulation), ELISA; assay type: cell-based, human; conditions: for IC50: human IgG-coated plate, 18 hours, SYK-dependent pathway, read-out: TNF-α release inhibition, IgG stimulation (IC50 nM)
THP-1 cells [2] = test: SYK-independent TNF-α release assay (lipopolysaccharide stimulation), ELISA; assay type: cell-based, human; conditions: SYK-independent pathway; for IC50: LPS, 18 hours, read-out: TNF-α release inhibition, LPS stimulation (IC50 nM)
[3] = test system: CIA mouse model (DBA/1J mice); test: Collagen-induced arthritis (CIA) mouse model, macroscopic scoring of paws; assay type: in vivo; conditions: for Inhibition in arthritis phenotype indicated by CIA compared with R788 (in words): mouse, in vivo; for CIA index (arthritic score of test group / vehicle group x 100): 30 mg/kg/day oral gavage once daily, DBA/1J mice
[4] = molecular target: full-length human KDR (VEGFR2) (Homo sapiens (Human), UniProt P35968); test: Inhibition of enzymatic KDR kinase activity (LANCE Ulight-JAK1 peptide, Eu-antibody, 665 nm emission); assay type: biochemical; conditions: ATP at Km (15 uM)
full-length human KDR (VEGFR2), sequence (P35968 20-1356): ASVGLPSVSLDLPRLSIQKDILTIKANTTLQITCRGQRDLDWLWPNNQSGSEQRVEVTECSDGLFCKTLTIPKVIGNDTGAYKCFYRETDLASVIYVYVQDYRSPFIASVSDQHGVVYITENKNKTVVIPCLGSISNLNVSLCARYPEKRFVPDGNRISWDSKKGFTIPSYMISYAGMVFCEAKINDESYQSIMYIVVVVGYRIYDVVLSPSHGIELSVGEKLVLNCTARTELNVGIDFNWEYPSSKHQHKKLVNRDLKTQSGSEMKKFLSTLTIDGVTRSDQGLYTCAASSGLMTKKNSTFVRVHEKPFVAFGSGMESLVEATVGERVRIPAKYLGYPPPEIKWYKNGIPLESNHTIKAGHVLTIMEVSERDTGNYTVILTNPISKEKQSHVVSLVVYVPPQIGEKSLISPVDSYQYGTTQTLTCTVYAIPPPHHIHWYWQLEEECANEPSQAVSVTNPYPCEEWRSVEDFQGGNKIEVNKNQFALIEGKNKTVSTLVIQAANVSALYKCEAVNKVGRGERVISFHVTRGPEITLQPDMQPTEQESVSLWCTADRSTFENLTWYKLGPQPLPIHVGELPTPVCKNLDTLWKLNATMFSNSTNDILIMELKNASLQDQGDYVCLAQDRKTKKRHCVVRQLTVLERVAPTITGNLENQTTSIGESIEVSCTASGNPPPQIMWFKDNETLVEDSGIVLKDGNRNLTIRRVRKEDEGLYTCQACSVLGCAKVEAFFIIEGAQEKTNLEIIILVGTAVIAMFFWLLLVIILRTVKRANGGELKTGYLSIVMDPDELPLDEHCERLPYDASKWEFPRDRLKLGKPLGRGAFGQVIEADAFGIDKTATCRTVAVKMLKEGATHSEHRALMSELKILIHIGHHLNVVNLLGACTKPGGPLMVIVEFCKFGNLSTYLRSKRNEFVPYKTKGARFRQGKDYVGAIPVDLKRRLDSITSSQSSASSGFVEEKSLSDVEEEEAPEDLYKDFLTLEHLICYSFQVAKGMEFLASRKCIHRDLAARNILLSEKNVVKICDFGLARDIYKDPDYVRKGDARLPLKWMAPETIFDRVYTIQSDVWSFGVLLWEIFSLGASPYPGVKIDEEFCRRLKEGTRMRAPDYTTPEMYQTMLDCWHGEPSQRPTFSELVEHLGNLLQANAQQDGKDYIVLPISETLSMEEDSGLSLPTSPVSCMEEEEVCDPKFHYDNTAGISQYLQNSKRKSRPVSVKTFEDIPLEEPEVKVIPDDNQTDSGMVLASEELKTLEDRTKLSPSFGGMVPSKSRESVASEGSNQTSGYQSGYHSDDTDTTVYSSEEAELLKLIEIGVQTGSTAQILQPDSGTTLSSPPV

- IC50 (full-length human SYK): 190 nM
Structure (SMILES): Cc1cn(-c2ccnc(Nc3ccc4c(ccn4C)c3)n2)cc1CN1CC(O)C1 [Compound 52, 1-((4-methyl-1-(2-(1-methyl-1H-indol-5-ylamino)pyrimidin-4-yl)-1H-pyrrol-3-yl)methyl)azetidin-3-ol]

Structure (SMILES): Cc1nn(-c2ccnc(Nc3ccc4c(c3)c(Cl)cn4C)n2)cc1CN1CC(O)C1 [Compound 144, 1-((1-(2-(3-Chloro-1-methyl-1H-indol-5-ylamino)pyrimidin-4-yl)-3-methyl-1H-pyrazol-4-yl)methyl)azetidin-3-ol]
- Inhibition in SYK dependent TNF-α release assay compared with R406 (in words) (THP-1 cells [1]; IgG stimulated release): stronger inhibition than R406
- IC50 (THP-1 cells [1]): 13 nM
- IC50 (THP-1 cells [2]; Homo sapiens): 1140 nM
- Inhibition in LPS stimulated TNF-α production (in words) (THP-1 cells [2]): no inhibition
- Inhibition in arthritis phenotype indicated by CIA compared with R788 (in words) [3]: stronger inhibition

- IC50 (THP-1 cells [1]): 171 nM
Structure (SMILES): COc1cc(Nc2ncc(F)c(Nc3ccc4c(n3)NC(=O)C(C)(C)O4)n2)cc(OC)c1OC [Compound R406, reference compound]

- IC50 (THP-1 cells [2]): 431 nM
Structure (SMILES): C[C@@H]1C[C@H]2[C@@H]3CCC4=CC(=O)C=C[C@]4(C)[C@@]3(F)[C@@H](O)C[C@]2(C)[C@@]1(O)C(=O)CO [Dexamethasone]

Structure (SMILES): Cc1nn(-c2ccnc(Nc3ccc4c(c3)c(Cl)c(C)n4C)n2)cc1CN1CC[C@@H](O)C1 [Compound 189, (R)-1-((1-(2-(3-Chloro-1,2-dimethyl-1H-indol-5-ylamino)pyrimidin-4-yl)-3-methyl-1H-pyrazol-4-yl)methyl)pyrrolidin-3-ol]
- IC50 (THP-1 cells [1]): 42 nM
- IC50 (THP-1 cells [2]; Homo sapiens): 2800 nM

Structure (SMILES): COc1cc(Nc2ncc(F)c(Nc3ccc4c(n3)N(COP(=O)(O)O)C(=O)C(C)(C)O4)n2)cc(OC)c1OC [Compound R788]
- CIA index (arthritic score of test group / vehicle group x 100) ([3]; day 6): 41.9 ± 7.5%
- CIA index (arthritic score of test group / vehicle group x 100) ([3]; day 9): 49.6 ± 9.4%
- CIA index (arthritic score of test group / vehicle group x 100) ([3]; day 12): 68.3 ± 8.6%
- CIA index (arthritic score of test group / vehicle group x 100) ([3]; day 15): 74.1 ± 7.1%
- CIA index (arthritic score of test group / vehicle group x 100) ([3]; day 18): 79.4 ± 10.7%
- CIA index (arthritic score of test group / vehicle group x 100) ([3]; day 21): 80.1 ± 6.7%

Structure (SMILES): Cc1nn(-c2ccnc(Nc3ccc4c(cnn4C)c3)n2)cc1CN1CC(O)C1 [Compound 160, 1-((3-Methyl-1-(2-(1-methyl-1H-indazol-5-ylamino)pyrimidin-4-yl)-1H-pyrazol-4-yl)methyl)azetidin-3-ol]
- IC50 (THP-1 cells [1]): 91 nM
- IC50 (THP-1 cells [2]; Homo sapiens): 934 nM

- IC50 (THP-1 cells [1]): 20 nM
- IC50 (THP-1 cells [2]; Homo sapiens): > 1000 nM
Structure (SMILES): Cc1nn(-c2ccnc(Nc3ccc4c(c3)c(C(=O)C(F)(F)F)cn4C)n2)cc1CN1CC(O)C1 [Compound 151, 2,2,2-Trifluoro-1-(5-(4-(4-((3-hydroxyazetidin-1-yl)methyl)-3-methyl-1H-pyrazol-1-yl)pyrimidin-2-ylamino)-1-methyl-1H-indol-3-yl)ethanone]

Structure (SMILES): Cc1nn(-c2ccnc(Nc3ccc4c(c3)c(Cl)c(C)n4C)n2)cc1CN1CC(O)C1 [Compound 141, 1-((1-(2-(3-chloro-1,2-dimethyl-1H-indol-5-ylamino)pyrimidin-4-yl)-3-methyl-1H-pyrazol-4-yl)methyl)azetidin-3-ol]
- Inhibition in arthritis phenotype indicated by CIA compared with R788 (in words) [3]: stronger inhibition
- IC50 [4]: 192 nM
